Article PMC7898037, “Improving mitochondria and ER stability helps eliminate upper motor neuron degeneration that occurs due to mSOD1 toxicity and TDP‐43 pathology” (Clinical and Translational Medicine, 2021)
Where “and” joins values, the source holds several entries; their conditions need not be identical. Identical values can stand only once.

What was measured:
hSOD1^G93A‐UeGFP mice = assay: Hanging wire test (max 60 s), hSOD1^G93A‐UeGFP mice; assay type: in vivo; design: Mean Diff. (wire hanging), vehicle vs. NU-9 / Mean (wire hanging): unit not given here; conditions: for Hanging wire test, group mean (Mean 1 / Mean 2): hSOD1G93A-UeGFP (GS) mice; for wire hanging, Average / Mean (wire hanging): hSOD1G93A-UeGFP
Procedure: (§1) hSOD1^G93A‐UeGFP, prpTDP‐43^A315T‐UeGFP and WT‐UeGFP mice were weighed and the required NU‐9 dose per weight was calculated (20 or 100 mg/kg), which was administered once daily by oral gavage, starting at postnatal day (P)60 and continuing until P120. Animals from the untreated group received the vehicle (NMP and olive oil) only. For oral administration purposes, 20 ga × 38 mm plastic feeding tubes were used (Instech Laboratories, Inc). The gavage tip was inserted into the mouth directly over the tongue and into the pharynx. While observing the swallowing reflex, the tip was safely and smoothly slid into the esophagus. Once the administration was completed, the gavage tip was pulled straight out.
Behavior data were collected from hSOD1^G93A‐UeGFP and WT‐UeGFP mice (starting at P60 and every 7 days until P116) and from prpTDP‐43^A315T‐UeGFP mice (at P60, P90, and P120) with the following number of mice for each group: WT‐UeGFP vehicle (n = 10), hSOD1^G93A‐UeGFP vehicle (n = 6), WT‐UeGFP 20 mg/kg/day NU‐9 (n = 5), hSOD1^G93A‐UeGFP 20 mg/kg/day NU‐9 (n = 7), WT‐UeGFP 100 mg/kg/day NU‐9 (n = 11), hSOD1^G93A‐UeGFP 100 mg/kg/day NU‐9 (n = 9), prpTDP‐43^A315T‐UeGFP untreated (n ≥ 3), and prpTDP‐43^A315T‐UeGFP 100 mg/kg/day NU‐9 (n = 4) (Table S3).
Mice were placed on a wire mesh, which was then inverted and suspended above the home cage; the time when the animal fell was recorded. This test was performed three times for a maximum of 60 s each session, with a 1‐min rest period between each trial. The average performance for each session is presented as the average of the three trials.

[1] = design: method as in PMID 22189273, PMID 22837812; conditions: cited from earlier work
[2] = test system: UMN apical dendrites of prpTDP‐43^A315T‐UeGFP mice; assay: UMN apical dendrites with vacuoles, prpTDP‐43^A315T‐UeGFP mice; assay type: in vivo
Procedure: as §1
Mice were deeply anesthetized using ketamine (90 mg/kg) with xylazine (10 mg/kg), and transcardially perfused with 4% PFA in PBS. The brains were removed intact and postfixed (4% PFA, overnight) and stored in PBS with sodium azide (0.01%) at 4°C. Sections were cut in a coronal (50 µm) plane using a vibratome (Leica) and processed for immunocytochemical analyses.
The antibodies used are as follows: anti‐GFP (1:1000, Invitrogen; or 1:1000, Abcam) and anti‐misfolded SOD1 (B8H10, 1:250, Médimabs). Briefly, sections were treated with blocking solution (PBS, 0.05% BSA, 2% FBS, 1% Triton X‐100, and 0.1% saponin) for 30 min at room temperature and incubated with primary antibody diluted in blocking solution overnight at 4°C. Appropriate secondary fluorescent antibodies (1:500, AlexaFluor‐conjugated, Invitrogen) were added to the blocking solution at room temperature for 2 h in the dark.

hERG channel = conditions: cited from earlier work

Question: Which results are given for `C[C@H](Oc1cc(C(F)(F)F)cc(C(F)(F)F)c1)C1CC(=O)CC(=O)C1` [NU‐9]?
Answer: Hanging wire test, group mean (Mean 1 / Mean 2) (hSOD1^G93A‐UeGFP mice; NU-9 20 mg/kg/day, P102, max 60 s): 43 s; Hanging wire test, group mean (Mean 1 / Mean 2) (hSOD1^G93A‐UeGFP mice; NU-9 20 mg/kg/day, P109, max 60 s): 37.48 s; Hanging wire test, group mean (Mean 1 / Mean 2) (hSOD1^G93A‐UeGFP mice; NU-9 20 mg/kg/day, P116, max 60 s): 27.33 s; Hanging wire test, group mean (Mean 1 / Mean 2) (hSOD1^G93A‐UeGFP mice; NU-9 100 mg/kg/day, P102, max 60 s): 53.3 s; Hanging wire test, group mean (Mean 1 / Mean 2) (hSOD1^G93A‐UeGFP mice; NU-9 100 mg/kg/day, P109, max 60 s): 58.89 s; Hanging wire test, group mean (Mean 1 / Mean 2) (hSOD1^G93A‐UeGFP mice; NU-9 100 mg/kg/day, P116, max 60 s): 51.15 s; Hanging wire test, mean difference vehicle minus NU-9 (hSOD1^G93A‐UeGFP mice; hSOD1G93A-UeGFP (GS) vehicle vs. NU-9 20 mg/kg/day, P102): -0.6667 s; Hanging wire test, mean difference vehicle minus NU-9 (hSOD1^G93A‐UeGFP mice; hSOD1G93A-UeGFP (GS) vehicle vs. NU-9 20 mg/kg/day, P109): 6.746 s; Hanging wire test, mean difference vehicle minus NU-9 (hSOD1^G93A‐UeGFP mice; hSOD1G93A-UeGFP (GS) vehicle vs. NU-9 20 mg/kg/day, P116): -4.722 s; Hanging wire test, mean difference vehicle minus NU-9 (hSOD1^G93A‐UeGFP mice; hSOD1G93A-UeGFP (GS) vehicle vs. NU-9 100 mg/kg/day, P102): -10.96 s; Hanging wire test, mean difference vehicle minus NU-9 (hSOD1^G93A‐UeGFP mice; hSOD1G93A-UeGFP (GS) vehicle vs. NU-9 100 mg/kg/day, P109): -14.67 s; Hanging wire test, mean difference vehicle minus NU-9 (hSOD1^G93A‐UeGFP mice; hSOD1G93A-UeGFP (GS) vehicle vs. NU-9 100 mg/kg/day, P116): -28.54 s; Mean Diff. (wire hanging), vehicle vs. NU-9 (hSOD1^G93A‐UeGFP mice; hSOD1G93A-UeGFP vehicle vs. NU-9 20 mg/kg/day, P60): -0.5238; Mean Diff. (wire hanging), vehicle vs. NU-9 (hSOD1^G93A‐UeGFP mice; hSOD1G93A-UeGFP vehicle vs. NU-9 20 mg/kg/day, P67): 4.175; Mean Diff. (wire hanging), vehicle vs. NU-9 (hSOD1^G93A‐UeGFP mice; hSOD1G93A-UeGFP vehicle vs. NU-9 20 mg/kg/day, P74): -3.46; Mean Diff. (wire hanging), vehicle vs. NU-9 (hSOD1^G93A‐UeGFP mice; hSOD1G93A-UeGFP vehicle vs. NU-9 20 mg/kg/day, P81): -1.095; Mean Diff. (wire hanging), vehicle vs. NU-9 (hSOD1^G93A‐UeGFP mice; hSOD1G93A-UeGFP vehicle vs. NU-9 20 mg/kg/day, P88): -2.452; Mean Diff. (wire hanging), vehicle vs. NU-9 (hSOD1^G93A‐UeGFP mice; hSOD1G93A-UeGFP vehicle vs. NU-9 20 mg/kg/day, P95): -5.254; Mean Diff. (wire hanging), vehicle vs. NU-9 (hSOD1^G93A‐UeGFP mice; hSOD1G93A-UeGFP vehicle vs. NU-9 20 mg/kg/day, P102): -0.6667; Mean Diff. (wire hanging), vehicle vs. NU-9 (hSOD1^G93A‐UeGFP mice; hSOD1G93A-UeGFP vehicle vs. NU-9 20 mg/kg/day, P109): 6.746; Mean Diff. (wire hanging), vehicle vs. NU-9 (hSOD1^G93A‐UeGFP mice; hSOD1G93A-UeGFP vehicle vs. NU-9 20 mg/kg/day, P116): -4.722; Mean Diff. (wire hanging), vehicle vs. NU-9 (hSOD1^G93A‐UeGFP mice; hSOD1G93A-UeGFP vehicle vs. NU-9 100 mg/kg/day, P60): -5.333; Mean Diff. (wire hanging), vehicle vs. NU-9 (hSOD1^G93A‐UeGFP mice; hSOD1G93A-UeGFP vehicle vs. NU-9 100 mg/kg/day, P67): 1.222; Mean Diff. (wire hanging), vehicle vs. NU-9 (hSOD1^G93A‐UeGFP mice; hSOD1G93A-UeGFP vehicle vs. NU-9 100 mg/kg/day, P74): -7.519; Mean Diff. (wire hanging), vehicle vs. NU-9 (hSOD1^G93A‐UeGFP mice; hSOD1G93A-UeGFP vehicle vs. NU-9 100 mg/kg/day, P81): -5.148; Mean Diff. (wire hanging), vehicle vs. NU-9 (hSOD1^G93A‐UeGFP mice; hSOD1G93A-UeGFP vehicle vs. NU-9 100 mg/kg/day, P88): -9.13; Mean Diff. (wire hanging), vehicle vs. NU-9 (hSOD1^G93A‐UeGFP mice; hSOD1G93A-UeGFP vehicle vs. NU-9 100 mg/kg/day, P95): -7.704; Mean Diff. (wire hanging), vehicle vs. NU-9 (hSOD1^G93A‐UeGFP mice; hSOD1G93A-UeGFP vehicle vs. NU-9 100 mg/kg/day, P102): -10.96; Mean Diff. (wire hanging), vehicle vs. NU-9 (hSOD1^G93A‐UeGFP mice; hSOD1G93A-UeGFP vehicle vs. NU-9 100 mg/kg/day, P109): -14.67; Mean Diff. (wire hanging), vehicle vs. NU-9 (hSOD1^G93A‐UeGFP mice; hSOD1G93A-UeGFP vehicle vs. NU-9 100 mg/kg/day, P116): -28.54; wire hanging, Average (hSOD1^G93A‐UeGFP mice; NU-9 20 mg/kg/day po, P60): 55.1905 s; wire hanging, Average (hSOD1^G93A‐UeGFP mice; NU-9 20 mg/kg/day po, P67): 51.7143 s; wire hanging, Average (hSOD1^G93A‐UeGFP mice; NU-9 20 mg/kg/day po, P74): 55.2381 s; wire hanging, Average (hSOD1^G93A‐UeGFP mice; NU-9 20 mg/kg/day po, P81): 54.0952 s; wire hanging, Average (hSOD1^G93A‐UeGFP mice; NU-9 20 mg/kg/day po, P88): 52.9524 s; wire hanging, Average (hSOD1^G93A‐UeGFP mice; NU-9 20 mg/kg/day po, P95): 54.8095 s; wire hanging, Average (hSOD1^G93A‐UeGFP mice; NU-9 20 mg/kg/day po, P102): 43 s; wire hanging, Average (hSOD1^G93A‐UeGFP mice; NU-9 20 mg/kg/day po, P109): 37.4762 s; wire hanging, Average (hSOD1^G93A‐UeGFP mice; NU-9 20 mg/kg/day po, P116): 27.3333 s; Mean (wire hanging) (hSOD1^G93A‐UeGFP mice; NU-9 20 mg/kg/day, P60): 55.19; Mean (wire hanging) (hSOD1^G93A‐UeGFP mice; NU-9 20 mg/kg/day, P67): 51.71; Mean (wire hanging) (hSOD1^G93A‐UeGFP mice; NU-9 20 mg/kg/day, P74): 55.24; Mean (wire hanging) (hSOD1^G93A‐UeGFP mice; NU-9 20 mg/kg/day, P81): 54.1; Mean (wire hanging) (hSOD1^G93A‐UeGFP mice; NU-9 20 mg/kg/day, P88): 52.95; Mean (wire hanging) (hSOD1^G93A‐UeGFP mice; NU-9 20 mg/kg/day, P95): 54.81; wire hanging, Average (hSOD1^G93A‐UeGFP mice; NU-9 100 mg/kg/day po, P60): 60 s; wire hanging, Average (hSOD1^G93A‐UeGFP mice; NU-9 100 mg/kg/day po, P67): 54.6667 s; wire hanging, Average (hSOD1^G93A‐UeGFP mice; NU-9 100 mg/kg/day po, P74): 59.2963 s; wire hanging, Average (hSOD1^G93A‐UeGFP mice; NU-9 100 mg/kg/day po, P81): 58.1481 s; wire hanging, Average (hSOD1^G93A‐UeGFP mice; NU-9 100 mg/kg/day po, P88): 59.6296 s; wire hanging, Average (hSOD1^G93A‐UeGFP mice; NU-9 100 mg/kg/day po, P95): 57.2593 s; wire hanging, Average (hSOD1^G93A‐UeGFP mice; NU-9 100 mg/kg/day po, P102): 53.2963 s; wire hanging, Average (hSOD1^G93A‐UeGFP mice; NU-9 100 mg/kg/day po, P109): 58.8889 s; wire hanging, Average (hSOD1^G93A‐UeGFP mice; NU-9 100 mg/kg/day po, P116): 51.1481 s; Mean (wire hanging) (hSOD1^G93A‐UeGFP mice; NU-9 100 mg/kg/day, P60): 60; Mean (wire hanging) (hSOD1^G93A‐UeGFP mice; NU-9 100 mg/kg/day, P67): 54.67; Mean (wire hanging) (hSOD1^G93A‐UeGFP mice; NU-9 100 mg/kg/day, P74): 59.3; Mean (wire hanging) (hSOD1^G93A‐UeGFP mice; NU-9 100 mg/kg/day, P81): 58.15; Mean (wire hanging) (hSOD1^G93A‐UeGFP mice; NU-9 100 mg/kg/day, P88): 59.63; Mean (wire hanging) (hSOD1^G93A‐UeGFP mice; NU-9 100 mg/kg/day, P95): 57.26; hanging wire test, latency to fall (hSOD1^G93A‐UeGFP mice; hSOD1^G93A‐UeGFP mice, 100 mg/kg/day, P102): 53.3 ± 2.9 s; Solubility (aqueous) [1]: ≥ 100 µM and ≥ 37 µg/ml; Mean Diff., Fig. 7E, GT Untreated vs. GT NU-9 (100) ([2]; prpTDP43A315T-UeGFP untreated minus NU-9 100 mg/kg/day, Tukey's multiple comparisons test): 70.28; Mean, Fig. 7E (UMN apical dendrites with vacuoles) ([2]; prpTDP-43A315T-UeGFP mice, NU-9 100 mg/kg/day): 10.93; percentage of UMNs with vacuolated primary apical dendrites ([2]; prpTDP‐43^A315T‐UeGFP mice, 100 mg/kg/day oral gavage P60–P120): 11% ± 1%; inhibition of the hERG channel (hERG channel): little inhibition; hERG antagonism (hERG channel; up to 30 µM): No inhibition up to 30 µM
